Where a name gives a salt, the structure may show the parent alone. Read-outs that look alike come from different tables or passages of the source.
Columns and labels:
[1] = Weight change in diet-induced obesity (DIO) rat model, 4-week administration; assay type: in vivo, male Sprague Dawley (SD) rats; settings: DIO rats, 4 weeks
Procedure: To simultaneously evaluate both the weight-loss and hypoglycemic effects of the cyclohexene derivative according to the present invention, experiments were carried out, as follows.
Specifically, male Sprague Dawley (SD) rats (approximately 4 weeks old) in a diet-induced obesity model were fed with a high-fat diet (Lab. Diet Co.) for approximately 10 weeks to induce high-fat diet-induced obesity (DIO). The rats undergoing the high-fat diet were randomly selected, and divided into groups (n=8) for respective administrations. The compounds of Comparative Examples 3 and 4 and Examples 48 and 119 were administered to the divided DIO rats each group for 4 weeks.
The weights of the DIO rats were measured twice a week during a period of administration of 4 weeks to record a change in the weights. At the end of the 4-week period of administration, a hypoglycemic effect was evaluated using an oral glucose tolerance test (OGTT), as follows.
FIG. 1 is a graph determining the changes in weights of rats after compounds of Example 48 and Comparative Examples 3 and 4 according to the present invention are administered to a diet-induced obesity (DIO) rat model for 4 weeks (In FIG. 1, the term “untreated group (Vehicle)” represents an untreated group in a high-fat DIO rat model; and the term “Lean” represents an untreated group in a normal SD rat model rather than a disease model).

in vivo = settings: female, Ihara's cataract rats (ICR), rat, po
Procedure: To evaluate acute toxicity of the cyclohexene derivative according to the present invention, experiments were carried out, as follows.
Five 7-week-old female Ihara's cataract rats (ICRs) were supplied by Nara Biotech Co. Ltd., housed in a breeding farm, and acclimated to new environments while being fed with general solid feeds and water. When the rats were 8 weeks old, experiments were carried out. Environmental conditions were maintained constant: a set temperature of 23±3° C., a humidity of 55±15%, an illuminance of 150 to 300 Lux, a ventilation rate of 10 to 20 times/hour, and a lighting time of 12 hours (light-dark cycle: lighting at 8 a.m. and lights-out at 8 p.m.). As the feeds, solid feeds for laboratory animals (5L79 Lab Diet, Purina Mills, Richmond, Ind., USA), which had been sterilized by exposure to radiation, were provided by Orientbio Inc. so that rats were allowed to freely consume the solid feeds. As the water, running water was disinfected using a UV sterilizer and an ultra-filtration system, and then provided o that rats were allowed to freely drink the water in a water bottle. Analyses of contaminants in the water and feeds were carried out according to the ChemOn Inc.'s standard operating procedure (SOP). […]

blood glucose level = assay: Oral glucose tolerance test (OGTT) in high-fat diet model; assay type: in vivo; settings: hypoglycemic level, 20 mg/kg oral, glucose 2 g/kg oral after 30 minutes; for inhibition in vivo at 20 mg/kg: Mus musculus, 2 h, read-out: % AUC
Procedure: To evaluate in vivo effective effects of the cyclohexene derivatives according to the present invention, experiments were carried out, as follows.
Specifically, male C57BL/6J (C57 black 6) […] (8 to 10 weeks old) in a high-fat diet model were acclimated for at least 7 days, and only healthy rat populations were selected and subjected to an oral glucose tolerance test (OGTT). The rats were fasted for 12 to 15 hours, and then randomly divided into groups with five rats per group. Thereafter, each of the compounds of Examples 1, 14, 48, 69, 80, 118, 139, 147, 148, 169, 190, 199, 200, 204, 227, and Comparative Examples 1 and 2 according to the present invention was administered to the rats at a dose of 20 mg/kg. In this case, a vehicle (0.5%, carboxymethyl cellulose (CMC)) was administered as an untreated group, and the dose of the compound administered together with the vehicle was orally administered at 10 ml/kg. After 30 minutes of administration, glucose (2 g/kg) was orally administered at a dose of 10 ml/kg. A blood glucose level was measured using an Accu-Chek Active Strip (Rosche Diagnostic Co.). In this case, the glucose level in blood collected via caudal venipuncture was measured at time points of −30, 0, 20, 40, 60, and 120 minutes after glucose administration.
In Table 3, the unit “% AUC (area under the curve)” represents a hypoglycemic level.

[2] = target: T1, G protein-coupled receptor 119 (GPR-119) (Mesocricetus auratus, UniProt A0A1U8CD06); assay: Evaluation of cAMP activity in HIT-T15 cells (HTRF cAMP dynamic kit); assay type: cell-based, hamster; settings: cAMP activation
T1 construct: hamster-derived β-cells containing G protein-coupled receptor 119 (GPR-119), HIT-T15 cells; host or cells: HIT-T15 (hamster pancreatic β-cells)
T1 sequence (A0A1U8CD06 1-334): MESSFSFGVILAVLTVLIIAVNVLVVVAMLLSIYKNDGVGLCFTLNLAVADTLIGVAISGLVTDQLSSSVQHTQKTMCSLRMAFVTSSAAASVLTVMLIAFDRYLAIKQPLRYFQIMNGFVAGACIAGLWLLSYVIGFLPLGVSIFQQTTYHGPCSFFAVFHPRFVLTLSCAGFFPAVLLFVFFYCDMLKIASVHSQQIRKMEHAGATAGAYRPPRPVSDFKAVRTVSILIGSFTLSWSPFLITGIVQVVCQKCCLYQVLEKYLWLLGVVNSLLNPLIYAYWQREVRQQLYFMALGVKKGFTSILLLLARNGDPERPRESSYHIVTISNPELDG
Summary of the method: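 HIT-T15 cells, 60,000/well, treated next day with compound at six concentrations ([…]) for 1 h at 37° C. Lysate cAMP quantified by HTRF competitive immunoassay (D2-cAMP, cryptate anti-cAMP); activity taken as change in FRET signal relative to DMSO.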

NCI-H716 cells = assay: Promotion of glucagon-like peptide-1 (GLP-1) secretion (ELISA); assay type: cell-based, human; settings: NCI-H716 cells, 1, 10 and 30 μM-treated groups
Procedure: To evaluate an effect of the cyclohexene derivative according to the present invention on promotion of glucagon-like peptide-1 (GLP-1) secretion, experiments were carried out, as follows.
NCI-H716 cells that were human enterocytes were plated on 12 wells at 1×10^6 cells per well. After 48 hours, the cells were starved in serum-free media for 2 hours, and treated with a varying concentration of siptagliptin that was a dipeptidyl peptidase-IV (DPP-IV) inhibitor, and the compounds of Comparative Example 1 (1, 10, 30 μM), Comparative Example 5 (10 μM), Example 48 (1, 10, 30 μM), and Example 291 (1, 10, 30 μM). After an hour, supernatants are recovered to determine an amount of the secreted GLP-1 peptide. The GLP-1 measurement was performed using an enzyme-linked immunosorbent assay (ELISA; Millipore, EGLP-35K), and the amount of the secreted GLP-1 peptide was indicated by the unit “pM”.
FIG. 3 is graph plotted for amounts of secreted GLP-1 when NCI-H716 cells that are human enterocytes are treated with the compounds of Comparative Examples 1 and 5 and Example 48 according to the present invention.

[3] = 1 h at 37° C., six concentrations, read-out: EC50

Structure (SMILES) | inhibition in vivo at 20 mg/kg (blood glucose level) | EC50 [2, 3] | EC50 ([2]; read-out: EC50 value) | also measured
CN(C)C(=N)NC(=N)N [Comparative Example 3, Metformin] |  |  |  | weight-loss effect ([1]; oral, 300 mg/kg): the weight rather increased after 2 weeks of the oral administration
CC(C)CC(N(C)C)C1(c2ccc(Cl)cc2)CCC1 (stereo not drawn) [Comparative Example 4, Sibutramine] |  |  |  | weight-loss effect ([1]; oral, 5 mg/kg): the weight rather increased after 2 weeks of the oral administration
CC(C)c1noc(N2CCC(COc3ccc(C4=CCC(C(=O)N5CC[C@@H](O)C5)CC4)cc3)CC2)n1 (stereo partly drawn) [Example 48, ((R)-3-hydroxypyrrolidin-1-yl)(4-(4-((1-(3-isopropyl-1,2,4-oxadiazol-5-yl)piperidin-4-yl)methoxy)phenyl)cyclohex-3-enyl)methanone] | 21.2% | 35 nM | ≤ 50 nM | LD50 (in vivo): ≥ 2000 mg/kg; weight-loss effect ([1]; oral, 10, 20, and 50 mg/kg): persistent weight loss was observed for 4 weeks; GLP-1 secretion compared with Comparative Example 1 (NCI-H716 cells): induced GLP-1 secretion to a higher level than that of Comparative Example 1
CCc1cnc(N2CCC(COc3ccc(C4=CCC(C(=O)N5CCC[C@H]5CO)CC4)cc3)CC2)nc1 (stereo partly drawn) [Example 119, (4-(4-((1-(5-ethylpyrimidin-2-yl)piperidin-4-yl)methoxy)phenyl)cyclohex-3-enyl)((S)-2-(hydroxymethyl)pyrrolidin-1-yl)methanone] |  | 6.8 nM | ≤ 50 nM | LD50 (in vivo): ≥ 2000 mg/kg
CC(C)c1noc(N2CCC(COc3ccc(C4=CCC(C(=O)N5CCC[C@@H]5CO)CC4)cc3)CC2)n1 (stereo partly drawn) [Example 147, ((R)-2-(hydroxymethyl)pyrrolidin-1-yl)(4-(4-((1-(3-isopropyl-1,2,4-oxadiazol-5-yl)piperidin-4-yl)methoxy)phenyl)cyclohex-3-enyl)methanone] | 23.3% | 6.9 nM | ≤ 50 nM | 
CC(C)c1noc(N2CCC(COc3ccc(C4=CCC(C(=O)N5CCC[C@H]5CO)CC4)cc3)CC2)n1 (stereo partly drawn) [Example 148, ((S)-2-(hydroxymethyl)pyrrolidin-1-yl)(4-(4-((1-(3-isopropyl-1,2,4-oxadiazol-5-yl)piperidin-4-yl)methoxy)phenyl)cyclohex-3-enyl)methanone] | 22.6% | 13 nM | ≤ 50 nM | 
CCc1cnc(N2CCC(COc3ccc(C4=CCC(C(=O)N5CCC(CO)CC5)CC4)cc3)CC2)nc1 (stereo not drawn) [Example 169, (4-(4-((1-(5-ethylpyrimidin-2-yl)piperidin-4-yl)methoxy)phenyl)cyclohex-3-enyl)(4-(hydroxymethyl)piperidin-1-yl)methanone hydrochloride] | 21.7% | 9 nM |  | 
CCN(CCO)C(=O)C1CC=C(c2ccc(OCC3CCN(C(=O)OC(C)(C)C)CC3)cc2)CC1 (stereo not drawn) [Example 199, tert-butyl 4-((4-(4-(ethyl(2-hydroxyethyl)carbamoyl)cyclohex-1-enyl)phenoxy)methyl)piperidine-1-carboxylate] | 20.9% | 8 nM | ≤ 50 nM | 
CC(C)(C)OC(=O)N1CCC(COc2ccc(C3=CCC(C(=O)N4CCC(CCO)CC4)CC3)cc2)CC1 (stereo not drawn) [Example 200, tert-butyl 4-((4-(4-(4-(2-hydroxyethyl)piperidine-1-carbonyl)cyclohex-1-enyl)phenoxy)methyl)piperidine-1-carboxylate] | 24% | 23 nM | ≤ 50 nM | 
CC(C)(C)OC(=O)N1CCC(COc2ccc(C3=CCC(C(=O)N4CCCCC4)CC3)cc2)CC1 (stereo not drawn) [Example 204, tert-butyl 4-((4-(4-(piperidine-1-carbonyl)cyclohex-1-enyl)phenoxy)methyl)piperidine-1-carboxylate] | 24% | 9 nM | ≤ 50 nM | 
CCc1cnc(N2CCC(COc3ccc(C4=CCC(C(=O)N5CCC(C#N)CC5)CC4)cc3)CC2)nc1 (stereo not drawn) [Example 227, 1-(4-(4-((1-(5-ethylpyrimidin-2-yl)piperidin-4-yl)methoxy)phenyl)cyclohex-3-enecarbonyl)piperidine-4-carbonitrile] | 26.8% | 6 nM | ≤ 50 nM | 
CCc1cnc(N2CCC(COc3ccc(C4=CCC(C(=O)N5CCC(=NO)CC5)CC4)cc3)CC2)nc1 (stereo not drawn) [Example 277, (4-(4-((1-(5-ethylpyrimidin-2-yl)piperidin-4-yl)methoxy)phenyl)cyclohex-3-enyl)(4-(hydroxyimino)piperidin-1-yl)methanone] |  | 20 nM |  | % AUC (blood glucose level): 19.8 % AUC
